# Test results from PMC3724849 (PLoS ONE, 2013).
# Several values for one entry are separate records, joined by “and”; a condition that tells them apart may be missing. Identical values can stand only once.
# Assays:
# [1] = system: C57BL/6 mice; experiment: SmartCube high-content behavioral phenotyping; format: in vivo, mouse; conditions: for discrimination index: p<0.001
# Protocol: SmartCube experiments were conducted at Psychogenics, Inc (Tarrytown, NY). […] The SmartCube® system can measure numerous spontaneous behaviors and responses to challenges in the same testing environment. The hardware includes force sensors and a number of aversive stimuli used to elicit behavior. Three high-resolution video cameras provide constant 3D view of the mouse in the SmartCube® apparatus throughout the testing period. Digital videos of the subjects were processed with computer vision algorithms to extract over 2,000 independent measures including frequency and duration of behavioral states such as grooming, rearing, etc., and many other features obtained during the test session. […] The database comprises 14 classes of drugs with some of the major classes, such as the antidepressant class, comprising several subclasses with representatives of most of the drugs in the market.
# [2] = system: CA1 pyramidal neurons of organotypic hippocampal brain slices; experiment: Patch clamp of synaptic transmission in organotypic hippocampal slices; format: cell-based, rat
# [3] = system: CA1 neurons of organotypic hippocampal brain slices; experiment: Current-clamp intrinsic excitability in organotypic hippocampal slices; format: cell-based, rat; conditions: SAHA vs vehicle treated slices; p>0.05
# Protocol: (§1) Interface cultures of hippocampal slices were made from 7–8 day old Sprague Dawley rats as previously described. Briefly, hippocampi were dissected in minimum essential medium (MEM; Invitrogen, Eugene, OR) with 15 mm HEPES and 10 mm Tris buffer (Invitrogen). Four-hundred micrometer slices were cultured on Millicell CM culture plate inserts (Millipore, Temecula, CA). The culture medium consisted of 50% MEM, 25% HBSS, and 25% horse serum, with 12.5 mM HEPES buffer and penicillin (100 U/ml)/streptomycin (100 µg/ml) (all from Invitrogen). Cultures were maintained in 5% CO2, at 37°C. Slices were maintained in vitro for one week prior to transfection.
# Patch clamp recordings were made in oxygenated Artificial Cerebrospinal Fluid (ACSF) containing (in mM) 127 NaCl, 2.5 KCl, 1.3 MgSO4, 2.5 CaCl2, 1.25 Na2HPO4, 25 NaHCO3, 25 glucose. For voltage-clamp recordings patch pipette internal solution consisted of 120 Cs-methanesulfonate, 20 CsCl, 0.5 EGTA, 10 HEPES, 2.5 MgCl2, 4 Na2ATP, 0.3 NA3GTP, 10 Phosphocreatine, and 5 mM QX-314 Br. Miniature excitatory postsynaptic currents (mEPSCs) were recorded in the presence of 100 µM Picrotoxin (PTX) and 1 µM tetrodotoxin (TTX) at a holding potential of −70 mV. Miniature inhibitory postsynaptic currents (mIPSCs) were recorded in the presence of 10 µM 2,3-Dioxo-6-nitro-1,2,3,4-tetrahydrobenzo[f]quinoxaline-7-sulfonamide (NBQX), 50 µM D-(−)-2-Amino-5-phosphonopentanoic acid (D-AP5) and 1 µM TTX at a holding potential of 0 mV. Significance of differences between mean frequencies or amplitudes of mEPSCs or mIPSCs were assessed using a student’s t-test. […]. For experiments measuring open NMDAR block synaptic inputs were stimulated locally using a bipolar stimulation electrode and NMDAR EPSCs were isolated using NBQX and PTX and measured at −70 mV with external MgCl2 lowered to 0.5 mM. […] For synaptic plasticity experiments synaptic inputs were stimulated locally using a bipolar stimulation electrode and EPSCs were measured at −70 mV. […] Significance of differences in normalized EPSC amplitudes between treatment groups following plasticity induction were assessed using a student’s t-test. […] Action potential threshold was measured during the smallest depolarizing current injection steps that triggered spiking. Input resistance was calculated from the steady-state response to the smallest hyperpolarizing current injection steps to avoid contamination from hyperpolarization-induced inward currents (h-current). The h-current “sag” was measured based on the difference between the maximal and steady-state voltage responses to strong hyperpolarizing current injection steps. Significance of differences in all measures between treatment groups were assessed using a student’s t-test.
# [4] = system: excitatory synapses in CA1 of organotypic hippocampal brain slices; experiment: Synaptic plasticity (LTP, LTD) in organotypic hippocampal slices; format: cell-based, rat; conditions: p<0.05
# Protocol: as §1
# Patch clamp recordings were made in oxygenated Artificial Cerebrospinal Fluid (ACSF) containing (in mM) 127 NaCl, 2.5 KCl, 1.3 MgSO4, 2.5 CaCl2, 1.25 Na2HPO4, 25 NaHCO3, 25 glucose. For voltage-clamp recordings patch pipette internal solution consisted of 120 Cs-methanesulfonate, 20 CsCl, 0.5 EGTA, 10 HEPES, 2.5 MgCl2, 4 Na2ATP, 0.3 NA3GTP, 10 Phosphocreatine, and 5 mM QX-314 Br. Miniature excitatory postsynaptic currents (mEPSCs) were recorded in the presence of 100 µM Picrotoxin (PTX) and 1 µM tetrodotoxin (TTX) at a holding potential of −70 mV. […] Significance of differences between mean frequencies or amplitudes of mEPSCs or mIPSCs were assessed using a student’s t-test. […]
# [5] = system: Tg2576 mice; experiment: Tg2576 fear conditioning; format: in vivo, mouse; conditions: 25 mg/kg or 50 mg/kg SAHA i.p. daily vs vehicle; p>0.05
# [6] = system: Tg2576 mice; experiment: Open field test in Tg2576 mice; format: in vivo, mouse; conditions: dosing day 32, 30 minutes, mean ±SEM
# [7] = Protein binding in plasma and brain; format: in vitro ADME
# [8] = Pharmacokinetic study after single i.p. injection
# [9] = single injection, valproate 225 mg/kg
# [10] = 0.5 µM SAHA for 3–4 days vs vehicle, p>0.05
smiles,measurement,setting,value
CCCC(CCC)C(=O)O [valproate],drug class activity signature,"[1]; daily for 14 days, valproate",predominantly anxiolytic signature
same,discrimination index,"[1]; daily for 14 days, valproate",98%
same,drug class activity signature,[1]; [9],strong anxiolytic signature and a mild psychostimulant signature
same,discrimination index,[1]; [9],100%
"O=C(CCCCCCC(=O)Nc1ccccc1)NO [SAHA, Suberoylanilide hydroxamic acid]",median amplitude of mEPSCs,"[2]; 0.5 µM SAHA for 3–4 days vs vehicle, p<0.05",significantly increased
same,amplitude of mIPSCs,[2]; [10],did not significantly alter
same,frequency of mIPSCs,[2]; [10],did not significantly alter
same,mEPSC frequency (median interval between events),[2]; [10],no significant change
same,rate of NMDAR EPSC blockade by MK-801,"[2]; repetitive stimulation, SAHA vs vehicle treated slices, p>0.05",not different
same,action potential threshold,[3],unaltered
same,input resistance,[3],unaltered
same,membrane sag (hyperpolarization-induced inward current),[3],unaltered
same,number of action potentials elicited by 500 ms current injection pulses,[3],no difference
same,LTP induction,[4]; induction protocol subthreshold in vehicle treated slices,readily evoked LTP
same,LTD induction,[4]; protocol that readily induced LTD in vehicle treated slices,could not produce LTD
same,"percentage of time freezing in response to the context, altered context, or cue",[5],no effect of treatment
same,percentage of time spent freezing during conditioning,[5],no effect of treatment
same,total distance traveled in the open field test,[6]; 25 mg/kg i.p. daily,39.6±6.1 m
same,total distance traveled in the open field test,[6]; 50 mg/kg i.p. daily,34.2±5.2 m
same,"bound to protein, brain",[7]; brain,87.0%
same,"bound to protein, plasma",[7]; plasma,40.7%
same,behavioral activity,"[1]; daily for 14 days, higher dose of SAHA (150 mg/kg)",not behaviorally active
same,drug class activity signature,"[1]; daily for 14 days, lower dose of SAHA (50 mg/kg)",not consistent with any known therapeutic signal
same,behavioral activity,[1]; single injection of 50 mg/kg or 150 mg/kg SAHA,behaviorally inactive
same,AUClast of free SAHA in the brain,[8]; 50 mg/kg i.p.,0.07 µM·h
same,Cmax of free SAHA in the brain,[8]; 50 mg/kg i.p.,110 ± 20 nM and 110 nM
same,AUClast of free SAHA in the brain,[8]; 150 mg/kg i.p.,0.36 µM·h
same,Cmax of free SAHA in the brain,[8]; 150 mg/kg i.p.,100 ± 10 nM
